Molecules are shown by their SMILES.

A short description of the data set: half-life of thermal oxygen release (thermolysis) of endoperoxides in CDCl3 at 25° C. The format is physicochemical. Conditions: CDCL3, 25° C. The text has this: In certain aspect an oxygen generating biomaterial can comprise a fast release thermolytic endoperoxide, a slow release thermolytic endoperoxide, or a slow release thermolytic endoperoxide and a fast release endoperoxide. A biomaterial can further comprise a singlet oxygen quencher. […] The ti/2 half-life is temperature dependent. This aids in both storage and release. The ti/2 is longer the lower the storage temperatures. […] The endoperoxide oxygen-carrier is most conveniently prepared by photo-oxidation of a precursor aromatic organic compound. The structure of the endoperoxide-forming compound determines its thermal stability and thus how rapidly oxygen is released and precursor compound reformed (via a “retro-Diels-Alder reaction”) at any given temperature. At body temperature the half-life (ti/2) for thermal release of ^1O2 from an endoperoxide (also known as “thermolysis”) can range from seconds to days. By combining two or more endoperoxide compounds, one with a relatively slow release rate (long ti/2) at the working temperature, and one or more with faster release rates (short ti/2), it is possible to form delivery systems with a wide range of rates, durations, and profiles of oxygen generation to suit a variety of end-use applications. In some applications it is possible to design a system that could be recharged by photo-oxidizing the reformed precursor compound(s). FIG. 1 illustrates an example of the chemistry involved.
As for `CC1=C(C)C2(C)OOC1(C)c1ccccc12` [1,2,3,4-tetramethylnaphthalene-1,4-endoperoxide], the “ti/2 in hours as measured in the presence of CDCL3 at 25° C.” value (“ti/2 in hours as measured” below) is recorded as “indeterminant”. For the compound `CC1=CC2(C)OOC1(C)c1ccccc12` (centres unmarked) [1,2,4-trimethylnaphthalene-1,4-endoperoxide], the “ti/2 in hours as measured” value was 70 h. `Cc1cccc2c1C1(C)C=CC2(C)OO1` (centres unmarked) [1,4,5-trimethylnaphthalene-1,4-endoperoxide]: the “ti/2 in hours as measured” value came to 290 h.

In the case of `CC12C=CC(C)(OO1)c1ccccc12` [1,4-dimethylnaphthalene-1,4-endoperoxide], the “ti/2 in hours as measured” value was 5 h. Then `Cc1cccc2c1C1(C)C=CC2OO1` (centres unmarked) [1,8-dimethylnaphthalene-1,4-endoperoxide], with 30 h.

The values above are taken from patent US10561763B2, “Oxygen generating biomaterial” (THE BOARD OF REGENTS OF THE UNIVERSITY OF TEXAS SYSTEM, priority 2013, dated 2020).
